Data on 22 compounds can be found in ChEMBL document CHEMBL1151057, “Difunctional enols of N-protected amino acids as low molecular weight and novel inhibitors of HIV-1 protease” (Bioorg Med Chem Lett, 1993).

Each structure is given as a SMILES string.

In the first assay the target is T1, Human immunodeficiency virus type 1 protease (Human immunodeficiency virus 1, UniProt Q72874). Briefly: Inhibitory constant against HIV-1 protease was determined.
Conditions: not given; call rule not given here
`CC(=O)NC(CC(C)C)C(=O)N[C@@H](Cc1ccccc1)/C(O)=C(\C#N)c1ccc([N+](=O)[O-])cc1` (stereo partly drawn) gave a Ki of 9.5 µM.
Consider `CC(=O)NC(CC(C)C)C(=O)N[C@@H](Cc1ccccc1)/C(O)=C(\C#N)c1ccncc1` (stereo partly drawn), for which the Ki is 168 µM.
Take `CCOP(=O)(OCC)/C(C#N)=C(\O)[C@H](Cc1ccccc1)NC(=O)C(CC(C)C)NC(C)=O` (stereo partly drawn): the Ki was 206 µM.
The same measure, in the same setting: the figure for `CC(=O)NC(CC(C)C)C(=O)N[C@@H](Cc1ccccc1)/C(O)=C(\C#N)S(=O)(=O)c1ccccc1` (stereo partly drawn) is 152 µM.
The compound `CO/C(O)=C(/C#N)C(=O)[C@H](Cc1ccccc1)NC(=O)C(CC(C)C)NC(C)=O` (stereo partly drawn) yielded a Ki of 209 µM.

For another assay, the target named is T1, Human immunodeficiency virus type 1 protease. Briefly: Inhibitory concentration required to inhibit HIV-1 protease was determined.
Conditions: not given
As for `CC(C)(C)OC(=O)NCC(=O)N[C@@H](Cc1ccccc1)/C(O)=C(\C#N)c1ccc([N+](=O)[O-])cc1`, the half-maximal inhibitory concentration (IC50) (commonly the midpoint of a concentration-inhibition curve) is 58 µM.

Another assay has the same target. Put plainly: Apparent inhibitory constant against HIV-1 protease was determined. Particulars: read-out: Ki app.
Regarding `CC(C)(C)OC(=O)N[C@@H](Cc1ccccc1)/C(O)=C(\C#N)c1c(F)c(F)c(F)c(F)c1F`, the Ki was determined as 0.48 µM.
Regarding `CC(=O)NC(CC(C)C)C(=O)N[C@@H](Cc1ccccc1)/C(O)=C(\C#N)c1ccc([N+](=O)[O-])cc1` (stereo partly drawn), the Ki was 9 µM.
As to `N#C/C(=C(/O)[C@H](Cc1ccccc1)NC(=O)OCc1ccccc1)c1ccc([N+](=O)[O-])cc1`, the Ki is 30 µM.
Turning to `CC(C)(C)OC(=O)N[C@@H](C(=O)C(N)Cc1ccccc1)/C(O)=C/c1ccc([N+](=O)[O-])cc1` (stereo partly drawn), the Ki was determined as 689 µM.
Take `CC(C)(C)OC(=O)N[C@@H](C(=O)[C@@H](N)Cc1ccccc1)/C(O)=C(\C#N)c1ccc([N+](=O)[O-])cc1`: the Ki worked out at 54 µM.
Consider `CC(C)(C)OC(=O)N[C@@H](C(=O)C(N)CC1CCCCC1)/C(O)=C(\C#N)c1ccc([N+](=O)[O-])cc1` (stereo partly drawn), for which the Ki was 15 µM.
On the same count and under the same terms, the figure for `CC(C)(C)OC(=O)N[C@@H](C(=O)C(N)c1ccccc1)/C(O)=C(\C#N)c1ccc([N+](=O)[O-])cc1` (stereo partly drawn) is 30 µM; for `CC(C)(C)OC(=O)N[C@@H](C(=O)C(N)Cc1c[nH]c2ccccc12)/C(O)=C(\C#N)c1ccc([N+](=O)[O-])cc1` (stereo partly drawn) it is 18 µM; for `CC(C)(C)OC(=O)N[C@@H](C(=O)C(N)Cc1ccc([N+](=O)[O-])cc1)/C(O)=C(\C#N)c1ccc([N+](=O)[O-])cc1` (stereo partly drawn) it is 60 µM.
As for `CC(C)(C)OC(=O)N[C@@H](C(=O)C(N)Cc1ccc2ccccc2c1)/C(O)=C(\C#N)c1ccc([N+](=O)[O-])cc1` (stereo partly drawn), the Ki worked out at 38 µM.
For `CC(C)(C)OC(=O)N[C@@H](Cc1ccccc1)/C(O)=C(\C#N)c1ccc([N+](=O)[O-])cc1`, the Ki stood at 2.3 µM.
Regarding `CC(=O)NC(CC(C)C)C(=O)N[C@@H](Cc1ccccc1)/C(O)=C(\C#N)c1c(F)c(F)c(F)c(F)c1F` (stereo partly drawn), the Ki worked out at 7 µM.
Turning to `N#C/C(=C(/O)[C@H](Cc1ccccc1)NC(=O)OCC1c2ccccc2-c2ccccc21)c1ccc([N+](=O)[O-])cc1`, the Ki is 78 µM.
`CC(C)(C)OC(=O)N[C@@H](C(=O)C1CCCN1)/C(O)=C(\C#N)c1ccc([N+](=O)[O-])cc1` (stereo partly drawn): the Ki was 181 µM.
Still for that read-out and setting: the figure for `CC(C)(C)OC(=O)N[C@H](C(=O)/C(C#N)=C(\O)c1ccccc1)C(=O)C(N)Cc1ccccc1` (stereo partly drawn) is 320 µM; for `CC(C)(C)OC(=O)N[C@@H](C(=O)C(N)Cc1ccc(OCc2ccccc2)cc1)/C(O)=C(\C#N)c1ccc([N+](=O)[O-])cc1` (stereo partly drawn) it is 12 µM.

Another assay has the same target. Briefly: Inhibitory constant against HIV-1 protease at 400 uM; NI means no inhibition.
Conditions: not given
Consider `CC(=O)NC(CC(C)C)C(=O)N[C@@H](Cc1ccccc1)C(O)=C(C#N)C#N` (stereo partly drawn), for which the Ki entry was “Not Active”.
